Measured values as given in patent publication US20180296456A1, “Decapeptide-12 Modulation of Sirtuin Gene Expression in Epidermal Keratinocyte Progenitors” (Escape Therapeutics, Inc., priority 2017, published 2018).
Where “and” joins values, the source holds several entries; their conditions need not be identical. Equal values may be shown once. Ends that are not written are not given here.

Key:
SIRT6 = SIRT6 transcription, semi-quantitative RT-PCR in human epidermal progenitors; assay type: cell-based; details: 72 h
Procedure, shortened: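 Following a 72 hour treatment, cells were trypsinized and RNA isolated with an RNeasy kit. cDNA was made from 2 μg RNA using oligo dT and TaqMan reagents, then SIRT6 and 18S were amplified for 34 cycles. Products ran on 1.5 percent agarose gels with ethidium bromide; densitometry gave SIRT6/18S intensity ratios compared against vehicle-treated controls.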

SIRT3 = SIRT3 transcription, semi-quantitative RT-PCR in human epidermal progenitors; assay type: cell-based; details: 72 h
Procedure, shortened: (§1)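 Read-out: agarose-gel band densitometry of RT-PCR products, each sirtuin divided by 18S intensity. Cells were human neonatal epidermal progenitors, 60 μM calcium medium, exposed 72 h to decapeptides at 10–300 μM; vehicle controls got DMSO/PBS (0.05 percent DMSO final).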

[1] = Trypan blue cell viability, 7 days, epidermal progenitors; assay type: cell-based; details: human, relative to control, read-out: epidermal progenitor viability after 7 days
Procedure: (§2) The effect of each of the decapeptides upon cell viability was also tested. In particular, cells were incubated with the decapeptide at various concentrations and then counted for viability relative to the control (untreated cells) using trypan blue. Cytotoxicity was measured according to the following formula:
(§3) [1−(# of cells in control−# of live cells in test sample)/# of cells in control]×100 percent.

[2] = MTT cell proliferation assay, melanoblasts; assay type: cell-based, human; details: human, MTT, 72 h, read-out: melanoblast proliferation rate after 72 hours
Procedure: Proliferation rates for three human cell lines (epidermal progenitors, melanoblasts, and fibroblasts) were determined using a TACS® MTT Cell Proliferation Kit. Cells were seeded at 2.5×10^4/well in 96-well plates in a humidified atmosphere with 5 percent CO2 at 37 degrees Celsius. Twenty-four hours later, the decapeptides were added to the corresponding wells at varying concentrations and incubated for 72 hours. The remainder of the procedure was performed following the manufacturer's protocol.

in vitro = assay type: cell-based; details: human, human epidermal progenitors
Procedure, shortened: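 Epidermal progenitors were seeded at 2.5×10^4/well and kept at 37 °C in 5% CO2. Proliferation was measured by MTT.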

SIRT7 = SIRT7 transcription, semi-quantitative RT-PCR in human epidermal progenitors; assay type: cell-based; details: 72 h
Procedure, shortened: as §1

SIRT5 = SIRT5 transcription, semi-quantitative RT-PCR in human epidermal progenitors; assay type: cell-based; details: 72 h
Procedure, shortened: as §1

[3] = Trypan blue cell viability, 7 days, fibroblasts; assay type: cell-based; details: human, relative to control, read-out: fibroblast viability after 7 days
Procedure: as §2, §3

[4] = Trypan blue cell viability, 7 days, melanoblasts; assay type: cell-based; details: human, relative to control, read-out: melanoblast viability after 7 days
Procedure: as §2, §3

## YRSRKYSSWY [decapeptide-12, YRSRKYSSWY]
SIRT6; 3 μM
  SIRT6 transcription increase relative to control: 3 ± 1%
SIRT6; 10 μM
  SIRT6 transcription increase relative to control: 21.3 ± 8.1%
SIRT6; 10 μM, listed as P4
  SIRT6 transcription increase relative to control: 21 ± 8%
SIRT6; 30 μM
  SIRT6 transcription increase relative to control: 52 ± 5.1%
SIRT6; 30 μM, listed as P4
  SIRT6 transcription increase relative to control: 52 ± 5%
SIRT6; 50 μM
  SIRT6 transcription increase relative to control: 95.4 ± 13.4%
SIRT6; 50 μM, listed as P4
  SIRT6 transcription increase relative to control: 95 ± 13%
SIRT6; 100 μM
  SIRT6 transcription increase relative to control: 147±8% and 147%
SIRT6; 100 μM, listed as Deca
  SIRT6 transcription increase relative to control: 147 ± 8.4%
SIRT6; 100 μM, listed as P4
  SIRT6 transcription increase relative to control: 147 ± 8%
SIRT6; 300 μM
  SIRT6 transcription increase relative to control: 189 ± 9.5%
SIRT6; 300 μM, listed as P4
  SIRT6 transcription increase relative to control: 189 ± 10%
SIRT6; 500 μM
  SIRT6 transcription increase relative to control: 194 ± 14%
SIRT6; 1000 μM
  SIRT6 transcription increase relative to control: 167 ± 12.2%
SIRT3; 3 μM
  SIRT3 transcription increase relative to control: 4 ± 1%
SIRT3; 10 μM
  SIRT3 transcription increase relative to control: 9.2 ± 2.8%
SIRT3; 10 μM, listed as P4
  SIRT3 transcription increase relative to control: 9 ± 3%
SIRT3; 30 μM
  SIRT3 transcription increase relative to control: 32.2 ± 6.1%
SIRT3; 30 μM, listed as P4
  SIRT3 transcription increase relative to control: 32 ± 6%
SIRT3; 50 μM
  SIRT3 transcription increase relative to control: 65 ± 12.1%
SIRT3; 50 μM, listed as P4
  SIRT3 transcription increase relative to control: 65 ± 12%
SIRT3; 100 μM
  SIRT3 transcription increase relative to control: 121±13%
SIRT3; 100 μM, listed as Deca
  SIRT3 transcription increase relative to control: 121 ± 13.2%
SIRT3; 100 μM, listed as P4
  SIRT3 transcription increase relative to control: 121 ± 13%
SIRT3; 100 μM, listed as decapeptide
  SIRT3 transcription increase relative to control: 121%
SIRT3; 300 μM
  SIRT3 transcription increase relative to control: 165.2 ± 12.4%
SIRT3; 300 μM, listed as P4
  SIRT3 transcription increase relative to control: 165 ± 12%
SIRT3; 500 μM
  SIRT3 transcription increase relative to control: 177 ± 9.2%
SIRT3; 1000 μM
  SIRT3 transcription increase relative to control: 171 ± 9%
[1]; 3 μM
  viability at 168 h, 3 µM: 100%
[1]; 10 μM
  viability at 168 h, 10 µM: 99 ± 1%
[1]; 30 μM
  viability at 168 h, 30 µM: 98.4 ± 1%
[1]; 50 μM
  viability at 168 h, 50 µM: 97.8 ± 1%
[1]; 100 μM
  viability at 168 h, 100 µM: 97.1 ± 1%
[1]; 300 μM
  viability at 168 h, 300 µM: 95.6 ± 2%
[1]; 500 μM
  viability at 168 h, 500 µM: 94.2 ± 2%
[1]; 1000 μM
  viability at 168 h, 1000 µM: 93.8 ± 2%
[2]; 3 μM
  viability at 72 h, 3 µM: 100%
[2]; 10 μM
  viability at 72 h, 10 µM: 100%
[2]; 30 μM
  viability at 72 h, 30 µM: 99 ± 1%
[2]; 50 μM
  viability at 72 h, 50 µM: 98 ± 1%
[2]; 100 μM
  viability at 72 h, 100 µM: 97 ± 1%
[2]; 300 μM
  viability at 72 h, 300 µM: 97 ± 1%
[2]; 500 μM
  viability at 72 h, 500 µM: 95 ± 2%
[2]; 1000 μM
  viability at 72 h, 1000 µM: 95 ± 2%
In vitro
  viability at 72 h, 3 µM: 100%
  viability at 72 h, 10 µM: 99 ± 1%
  viability at 72 h, 30 µM: 98 ± 1%
  viability at 72 h, 50 µM: 97 ± 1%
  viability at 72 h, 100 µM: 97 ± 1%
  viability at 72 h, 300 µM: 96 ± 1%
  viability at 72 h, 500 µM: 96 ± 2%
  viability at 72 h, 1000 µM: 94 ± 2%
SIRT7; 3 μM
  SIRT7 transcription increase relative to control: 5 ± 1%
SIRT7; 10 μM
  SIRT7 transcription increase relative to control: 15 ± 4.2%
SIRT7; 10 μM, listed as P4
  SIRT7 transcription increase relative to control: 15 ± 4%
SIRT7; 30 μM
  SIRT7 transcription increase relative to control: 34.4 ± 9.2%
SIRT7; 30 μM, listed as P4
  SIRT7 transcription increase relative to control: 34 ± 9%
SIRT7; 50 μM
  SIRT7 transcription increase relative to control: 61.3 ± 10.2%
SIRT7; 50 μM, listed as P4
  SIRT7 transcription increase relative to control: 61 ± 10%
SIRT7; 100 μM
  SIRT7 transcription increase relative to control: 95.4±14% and 95±14%
SIRT7; 100 μM, listed as Deca
  SIRT7 transcription increase relative to control: 95.4 ± 14.2%
SIRT7; 100 μM, listed as P4
  SIRT7 transcription increase relative to control: 95 ± 14%
SIRT7; 300 μM
  SIRT7 transcription increase relative to control: 148 ± 9.6%
SIRT7; 300 μM, listed as P4
  SIRT7 transcription increase relative to control: 148 ± 10%
SIRT7; 500 μM
  SIRT7 transcription increase relative to control: 171.4 ± 8.4%
SIRT7; 1000 μM
  SIRT7 transcription increase relative to control: 181.1 ± 8.4%
SIRT5; 3 μM
  SIRT5 transcription increase relative to control: 3 ± 1%
SIRT5; 10 μM
  SIRT5 transcription increase relative to control: 5.2 ± 3%^
SIRT5; 10 μM, listed as P4
  SIRT5 transcription increase relative to control: 5 ± 3%
SIRT5; 30 μM
  SIRT5 transcription increase relative to control: 21 ± 6.7%
SIRT5; 30 μM, listed as P4
  SIRT5 transcription increase relative to control: 21 ± 7%
SIRT5; 50 μM
  SIRT5 transcription increase relative to control: 33.1 ± 6.1%
SIRT5; 50 μM, listed as P4
  SIRT5 transcription increase relative to control: 33 ± 6%
SIRT5; 100 μM, listed as Deca
  SIRT5 transcription increase relative to control: 46 ± 7.3%
SIRT5; 100 μM, listed as P4
  SIRT5 transcription increase relative to control: 46 ± 7%
SIRT5; 300 μM
  SIRT5 transcription increase relative to control: 67 ± 9.3%
SIRT5; 300 μM, listed as P4
  SIRT5 transcription increase relative to control: 67 ± 9%
SIRT5; 500 μM
  SIRT5 transcription increase relative to control: 87.4 ± 15.1%
SIRT5; 1000 μM
  SIRT5 transcription increase relative to control: 92.1 ± 16.8%
[3]; 3 μM
  viability at 168 h, 3 µM: 100%
[3]; 10 μM
  viability at 168 h, 10 µM: 98.6 ± 1%
[3]; 30 μM
  viability at 168 h, 30 µM: 98.2 ± 1%
[3]; 50 μM
  viability at 168 h, 50 µM: 97.8 ± 1%
[3]; 100 μM
  viability at 168 h, 100 µM: 97.2 ± 1%
[3]; 300 μM
  viability at 168 h, 300 µM: 95.6 ± 2%
[3]; 500 μM
  viability at 168 h, 500 µM: 94.5 ± 2%
[3]; 1000 μM
  viability at 168 h, 1000 µM: 93.8 ± 1%
[4]; 3 μM
  viability at 168 h, 3 µM: 100%
[4]; 10 μM
  viability at 168 h, 10 µM: 99 ± 1%
[4]; 30 μM
  viability at 168 h, 30 µM: 98.3 ± 1%
[4]; 50 μM
  viability at 168 h, 50 µM: 98 ± 1%
[4]; 100 μM
  viability at 168 h, 100 µM: 97.3 ± 1%
[4]; 300 μM
  viability at 168 h, 300 µM: 95.2 ± 2%
[4]; 500 μM
  viability at 168 h, 500 µM: 94.6 ± 2%
[4]; 1000 μM
  viability at 168 h, 1000 µM: 94 ± 2%
